Values quoted from earlier work as cited in US20080020059A1, “COMPOSITIONS AND METHODS FOR TOPICAL TREATMENT OF SKIN INFECTION” (CHIOU CONSULTING, INC., priority 2003, published 2008).

System: acne
Conditions: after 12 weeks of treatment

Compound: CC[C@H]1OC(=O)[C@H](C)[C@@H](O[C@H]2C[C@@](C)(OC)[C@@H](O)[C@H](C)O2)[C@H](C)[C@@H](O[C@@H]2O[C@H](C)C[C@H](N(C)C)[C@H]2O)[C@](C)(O)C[C@@H](C)C(=O)[C@H](C)[C@@H](O)[C@]1(C)O [erythromycin]
- patients showing satisfactory responses: about 50%
